The NIST ThermoML archive (doi:10.1021/je4009415)

Tests used:
[1] = refractive index (Na D-line) (dimensionless); conditions: 298.15 K; 101.33 kPa; Liquid; Standard Abbe refractometry
[2] = Liquid; for mass density: Vibrating tube method; for vapor or sublimation pressure: Ebulliometric method (Recirculating still)
[3] = xn = mol fraction of the nth substance listed; conditions: Liquid, Vibrating tube method

CCOC(=O)CC [ethyl propanoate]
Conditions | refractive index
[1] | 1.3811

[2]
Conditions | mass density [kg/m3] | vapor or sublimation pressure [kPa]
288.15 K | 895.58 | –
298.15 K | 884.15 | –
308.15 K | 872.62 | –
318.15 K | 861.08 | –
328.15 K | 849.41 | –
348.07 K | – | 45
349.55 K | – | 47.5
350.96 K | – | 50
352.34 K | – | 52.5
353.66 K | – | 55
354.91 K | – | 57.5
356.15 K | – | 60
357.32 K | – | 62.5
358.48 K | – | 65
359.57 K | – | 67.5
360.66 K | – | 70
361.72 K | – | 72.5
362.74 K | – | 75
363.71 K | – | 77.5
364.69 K | – | 80
365.63 K | – | 82.5
366.55 K | – | 85
367.47 K | – | 87.5
368.35 K | – | 90
369.21 K | – | 92.5
370.06 K | – | 95
370.87 K | – | 97.5
371.73 K | – | 100
372.09 K | – | 101.32
372.18 K | – | 101.32
373.31 K | – | 105
374.84 K | – | 110
376.29 K | – | 115
377.7 K | – | 120
379.08 K | – | 125
380.4 K | – | 130
381.67 K | – | 135
382.91 K | – | 140
384.15 K | – | 145
385.32 K | – | 150
386.47 K | – | 155
387.6 K | – | 160
388.69 K | – | 165
389.77 K | – | 170
390.81 K | – | 175
391.83 K | – | 180
392.85 K | – | 185
393.81 K | – | 190
394.77 K | – | 195
395.72 K | – | 200
396.64 K | – | 205
397.55 K | – | 210
398.43 K | – | 215
399.31 K | – | 220
400.17 K | – | 225
401 K | – | 230
401.83 K | – | 235
402.65 K | – | 240
403.46 K | – | 245
404.25 K | – | 250
405.04 K | – | 255
405.79 K | – | 260
406.56 K | – | 265
407.3 K | – | 270
408.03 K | – | 275
408.75 K | – | 280

CCOC(=O)CC [ethyl propanoate] + CCCCC
mass density [kg/m3], [3]
Conditions | 288.15 K | 298.15 K
x1 = 0.0503 | 643.39 | –
x1 = 0.0545 | – | 634.55
x1 = 0.1013 | – | 646.47
x1 = 0.1017 | 656.5 | –
x1 = 0.1511 | 669.25 | –
x1 = 0.1538 | – | 659.85
x1 = 0.2025 | 682.62 | –
x1 = 0.2051 | – | 673.1
x1 = 0.254 | – | 685.81
x1 = 0.2551 | 696.41 | –
x1 = 0.3012 | 708.53 | –
x1 = 0.3038 | – | 698.8
x1 = 0.3525 | 722.09 | –
x1 = 0.3594 | – | 713.37
x1 = 0.3947 | 733.28 | –
x1 = 0.4062 | – | 725.7
x1 = 0.4496 | 747.92 | –
x1 = 0.4575 | – | 739.37
x1 = 0.5009 | 761.7 | –
x1 = 0.5083 | – | 752.81
x1 = 0.5519 | 775.33 | –
x1 = 0.56 | – | 766.57
x1 = 0.5987 | 787.9 | –
x1 = 0.606 | – | 778.84
x1 = 0.6449 | 800.24 | –
x1 = 0.6559 | – | 792.17
x1 = 0.6974 | 814.34 | –
x1 = 0.7061 | – | 805.64
x1 = 0.7488 | 828.17 | –
x1 = 0.7498 | – | 817.26
x1 = 0.7974 | 841.13 | –
x1 = 0.8007 | – | 830.93
x1 = 0.8477 | 854.65 | –
x1 = 0.8535 | – | 844.98
x1 = 0.8951 | 867.4 | –
x1 = 0.9054 | – | 858.85
x1 = 0.9482 | 881.6 | –
x1 = 0.9511 | – | 871.06
x1 = 1 | 895.58 | 884.15

CCCCCCC [heptane]
Conditions | refractive index
[1] | 1.3853

[2]
Conditions | mass density [kg/m3] | vapor or sublimation pressure [kPa]
288.15 K | 688.16 | –
298.15 K | 679.62 | –
308.15 K | 670.96 | –
318.15 K | 662.33 | –
328.15 K | 653.61 | –
371.38 K | – | 101.32

CCCCCCC [heptane] + CCC(=O)OC
[3], x2 = 0
Conditions | mass density [kg/m3]
288.15 K | 688.16
298.15 K | 679.62
308.15 K | 670.96
318.15 K | 662.33
328.15 K | 653.61

CCCCCCC [heptane] + CCOC(=O)CC
[3], x2 = 0
Conditions | mass density [kg/m3]
288.15 K | 688.16
298.15 K | 679.62
308.15 K | 670.96
318.15 K | 662.33
328.15 K | 653.61
